Measured values from PMC3913017, “A Method for Fast Assessment of OP/CB Exposure in the Japanese Quail (Coturnix coturnix japonica) Using Combined Esterases Enzyme Activity as Biomarkers” (Enzyme Research, 2014).
Like-named read-outs stand apart in the source and are kept apart here.

How the values were obtained:
[1] = system: cholinesterase (ChE) in liver homogenate; test: Substrate hydrolysis, liver homogenate ChE; format: biochemical, Japanese quail (Coturnix coturnix japonica); details: 1 mM AcTChI, BuTChI, 2 mM PrTChI
Procedure: (§1) To obtain plasma, 1 mL blood samples were added to anticoagulant (heparin, 3.7 mg, final concentration 0.1%) in 5 mL centrifuge tubes. Plasma was separated by centrifugation at 5000 g for 10 min. The liver was removed using a scalpel, cut into small pieces (2-3 mm^3), and rinsed until the blood was fully removed. The liver was then placed on ice in 5 mL tubes (5 mm internal diameter) and homogenized using a mechanically driven homogenizer with phosphate buffer (0.1 M, pH 8) with a 1 : 10 ratio (w/v) of 1 part of liver tissue to 9 parts of buffer and a speed of 10000 rpm. Homogenisation required 3 min; after every one min or so of homogenization, the mixture was rested for 30 s to allow cooling. The homogenate was then centrifuged at 5000 g for 10 min and the supernatant fraction was retained and used for subsequent analyses.
(§2) Enzyme activity was determined at room temperature 25°C by the Ellman method [18], and using thioacetate (PSA) for measuring CbE enzyme activity or by using thiocholine (e.g., AcTChI, BuTChI, or PrTChI substrate) for measuring ChE enzyme activities [19]. […] Enzyme activities were calculated using an extinction coefficient of 13.6 mM^−1 cm^−1 for TNB [21] and are expressed as units (1 U ≡ 1 μmol ≡ 1000 nmol of substrate hydrolysed per min) per g wet weight of liver homogenate, while for plasma they are expressed as U/mL [2]. […]

[2] = target: T1, cholinesterase (ChE) in blood plasma (Coturnix japonica, UniProt A0A8C2YFF6); test: Substrate hydrolysis and kinetics, blood plasma ChE; format: biochemical, Japanese quail (Coturnix coturnix japonica); details: for reaction rate of substrate hydrolysis, plasma: blood plasma, 1 mM AcTChI, BuTChI, 2 mM PrTChI
Procedure: as §1
(§3) Enzyme activity was determined at room temperature 25°C by the Ellman method [18], and using thioacetate (PSA) for measuring CbE enzyme activity or by using thiocholine (e.g., AcTChI, BuTChI, or PrTChI substrate) for measuring ChE enzyme activities [19]. […] Substrate solutions (final concentration 2 mM for PrTChI and PSA, while 1 mM for AcTChI and BuTChI) were prepared and used on the same day and kept on ice during use. Enzyme activities were calculated using an extinction coefficient of 13.6 mM^−1 cm^−1 for TNB [21] and are expressed as units (1 U ≡ 1 μmol ≡ 1000 nmol of substrate hydrolysed per min) per g wet weight of liver homogenate, while for plasma they are expressed as U/mL [2]. All measurements in this paper were carried out in duplicate.

[3] = target: carboxylesterase (CbE) in blood plasma; test: In vitro inhibition of blood plasma CbE by CB/OP pesticides (Ellman, PSA substrate); format: biochemical, Japanese quail (Coturnix coturnix japonica); details: for IC50: substrate PSA, 30 min 25°C, mean ± SE, read-out: Half maximal inhibitory concentration (IC50), PSA
Procedure: To obtain plasma, 1 mL blood samples were added to anticoagulant (heparin, 3.7 mg, final concentration 0.1%) in 5 mL centrifuge tubes. Plasma was separated by centrifugation at 5000 g for 10 min.
as §3
Then esterases enzyme activity was measured as explained in the above section. For the measurement of half maximal inhibitory concentrations (IC50), samples were inhibited for 30 min at room temperature 25°C with appropriate concentration of CB or OP pesticide compounds, depending on preliminary range finding tests. Controls that were incubated with phosphate buffer pH 8.0 were included. Then the enzyme activity was determined as described above. Then the data were fitted with nonlinear regression analysis using a single exponential decay by SigmaPlot 11 (Systat software, Inc.).

[4] = target: T1, cholinesterase (ChE) in blood plasma; test: Inhibition rate constant (ki), blood plasma ChE (thiocholine substrates); details: for ki value, range: blood plasma, range over the substrates AcTChI, BuTChI, PrTChI and PSA
Procedure: as §3
Controls that were incubated with phosphate buffer pH 8.0 were included when appropriated. Blanks were also run at each selected inhibitor for each based on the absorbance tested. Then the enzyme activity was determined as described in above. The decrease in esterases enzyme activity over different times (1–60 min) at room temperature 25°C was detected. Then the data of inhibition time courses at different times after inhibition was fitted with a single exponential decay using SigmaPlot 11. However, the percentage inhibition was calculated from the ratio between the activity of an exposed sample and unexposed controls by the following formula: (1) % Inhibition =Esterases enzyme activity with inhibitor/Esterases enzyme activity without inhibitor×100.

[5] = target: T1, cholinesterase (ChE) in blood plasma; test: In vivo oral exposure 48 h, plasma ChE inhibition; parameters: species or system Japanese quail (Coturnix coturnix japonica)
Procedure: The extent of inhibition of esterases enzyme activity was also assessed following in vivo exposure of test of quail by oral dosing (n = 15) were exposed to test solutions of parathion, malathion, methomyl, trichlorfon, or control (water) in cages. […] Samples were prepared and assayed as explained in the above section.

[6] = system: quails; details: cited from earlier work
[7] = system: carboxylesterase (CbE) in blood plasma; test: Inhibition rate constant (ki), blood plasma CbE (PSA substrate); format: biochemical, Japanese quail (Coturnix coturnix japonica); details: 4 mM methomyl, 2 mM parathion, malathion, trichlorfon, 1–60 min, 25°C, mean ± SE
Procedure: Blanks were also run at each selected inhibitor for each based on the absorbance tested. Then the enzyme activity was determined as described in above. The decrease in esterases enzyme activity over different times (1–60 min) at room temperature 25°C was detected. Then the data of inhibition time courses at different times after inhibition was fitted with a single exponential decay using SigmaPlot 11. However, the percentage inhibition was calculated from the ratio between the activity of an exposed sample and unexposed controls by the following formula: (1) % Inhibition =[…].

[8] = system: ChE enzyme; test: Incubation with general serine esterase inhibitor, ChE activity; format: biochemical, Japanese quail (Coturnix coturnix japonica); details: 3 mM inhibitor
[9] = system: CbE enzyme; test: Incubation with general serine esterase inhibitor, CbE activity; format: biochemical, Japanese quail (Coturnix coturnix japonica); details: 3 mM inhibitor
[10] = system: carboxylesterase (CbE) in blood plasma; test: Substrate hydrolysis, blood plasma CbE (PSA); format: biochemical, Japanese quail (Coturnix coturnix japonica); details: 2 mM PSA
Procedure: as §1, §2

[11] = system: carboxylesterase (CbE) in liver homogenate; test: Substrate hydrolysis and kinetics, liver homogenate CbE (PSA); format: biochemical, Japanese quail (Coturnix coturnix japonica)
Procedure: as §1, §3

[12] = read-out: inhibition of control activity

T1 sequence (A0A8C2YFF6 30-604): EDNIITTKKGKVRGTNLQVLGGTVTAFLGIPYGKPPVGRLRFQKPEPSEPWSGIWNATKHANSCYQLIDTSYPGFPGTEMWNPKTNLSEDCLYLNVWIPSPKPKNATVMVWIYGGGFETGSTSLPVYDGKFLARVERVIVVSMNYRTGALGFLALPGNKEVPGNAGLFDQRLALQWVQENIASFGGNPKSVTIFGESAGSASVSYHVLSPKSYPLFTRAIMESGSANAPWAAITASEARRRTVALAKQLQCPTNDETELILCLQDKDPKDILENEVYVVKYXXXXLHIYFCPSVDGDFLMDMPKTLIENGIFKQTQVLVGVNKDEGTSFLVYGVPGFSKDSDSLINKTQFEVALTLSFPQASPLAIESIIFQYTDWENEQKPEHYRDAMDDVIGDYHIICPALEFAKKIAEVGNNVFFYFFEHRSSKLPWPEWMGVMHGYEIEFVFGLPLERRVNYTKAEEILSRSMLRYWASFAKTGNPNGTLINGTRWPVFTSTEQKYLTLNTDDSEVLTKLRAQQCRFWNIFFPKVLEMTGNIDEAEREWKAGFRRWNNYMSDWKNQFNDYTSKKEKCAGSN

CCCC(=O)SCC[N+](C)(C)C.[I-] [BuTChI, (2-mercaptoethyl) trimethylammonium iodide butyrate]
reaction rate of substrate hydrolysis, liver homogenate [1]: 304.5 nmol/min/g
Vmax ([2]; blood plasma ChE, Figure 4(a)): 1011 nmol/min/mL
Km ([2]; blood plasma ChE, substrate 0.125–2 mM, read-out: Km (apparent Michaelis constant)): 394 µM
reaction rate of substrate hydrolysis, plasma [2]: 1321.5 nmol/min/mL

COP(=O)(OC)C(O)C(Cl)(Cl)Cl (stereo not shown) [Trichlorfon, dimethyl (2,2,2-trichloro-1-hydroxyethyl) phosphonate]
IC50 [3]: 510 ± 90 µM
ki value, range [4]: 0.3451 to 0.9769 min⁻¹
inhibition at 11 mg/kg ([5]; read-out: % inhibition compared with the control, plasma, AcTChI): 12.1%
inhibition at 11 mg/kg ([5]; read-out: % inhibition compared with the control, plasma, BuTChI): 33.2%
inhibition at 11 mg/kg ([5]; read-out: % inhibition compared with the control, plasma, PrTChI): 11.7%
median lethal dose (LD50) ([6]; oral, quails): 22 mg/kg
Rate constant inhibition (ki), PSA [7]: 976.9 ± 8.9 × 10^−3 min^−1

CCOC(=O)CC(SP(=S)(OC)OC)C(=O)OCC (stereo not shown) [Malathion, S-1,2-bis(ethoxycarbonyl) ethyl O,O-dimethyl phosphorodithioate]
IC50 [3]: 910 ± 400 µM
ki value, range [4]: 0.0358 to 0.1756 min⁻¹
inhibition at 2000 µM [4, 12]: 83 to 99%
median lethal dose (LD50) ([6]; oral, quails): 400 mg/kg
Rate constant inhibition (ki), PSA [7]: 175.6 ± 16.0 × 10^−3 min^−1

CNC(=O)ON=C(C)SC [Methomyl, S-methyl-N((methylcarbamoyl)oxy) thioacetimidate]
CbE enzyme activity sensitivity to inhibition ([3]; in vitro, PSA, Figure 10(a)): insensitive to the CB methomyl except at high concentrations
IC50 [3]: 610 ± 20 µM
ki value, range [4]: 0.1224 to 0.5674 min⁻¹
inhibition at 4000 µM [4, 12]: 83 to 99%
median lethal dose (LD50) ([6]; in vivo, po): 24.2 mg/kg
Rate constant inhibition (ki), PSA [7]: 345.3 ± 12.4 × 10^−3 min^−1

O=S(=O)(F)Cc1ccccc1 [phenylmethanesulfonyl fluoride]
level of ChE enzyme activity after incubation [8]: insignificant levels
level of CbE enzyme activity after incubation [9]: insignificant levels

CCC(=O)SCC[N+](C)(C)C.[I-] [PrTChI, (2-mercaptoethyl) trimethylammonium iodide propionate]
reaction rate of substrate hydrolysis, liver homogenate [1]: 113.9 nmol/min/g
reaction rate of substrate hydrolysis, plasma [2]: 211.9 nmol/min/mL

CC(=O)Sc1ccccc1 [PSA, thiophenyl acetate]
reaction rate of substrate hydrolysis, plasma [10]: 68.9 nmol/min/mL
Vmax ([11]; liver CbE, Figure 4(b)): 1195 nmol/min/g
Km ([11]; liver CbE, substrate 0.25–4 mM, read-out: apparent Km): 713 µM
reaction rate of substrate hydrolysis, liver homogenate ([11]; liver homogenate, 2 mM PSA): 1.765 µmol/min/g

CCOP(=S)(OCC)Oc1ccc([N+](=O)[O-])cc1 [Parathion, O,O-diethyl O-(4-nitrophenyl) phosphorothioate]
IC50 [3]: 220 ± 60 µM
ki value, range [4]: 0.4532 to 0.8233 min⁻¹
median lethal dose (LD50) ([6]; oral, quails): 6 mg/kg
Rate constant inhibition (ki), PSA [7]: 453.2 ± 5.6 × 10^−3 min^−1
